What was measured:
[1] = test system: PERK (Thr980) phosphorylation; test: Hypothalamic PERK (Thr980) phosphorylation in ob/ob mice; type: in vivo; details: vs vehicle
Protocol: Nine-week old lean wt and ob/ob mice were orally treated with either PBA (1 g/kg/day) or vehicle (VEH) for 26 days and PERK (Thr980) phosphorylation is examined in the hypothalamus extracts with direct immunoblotting. (B) Ten week-old wt lean and ob/ob mice were intraperitoneally injected with leptin (0.1 mg/kg) after six-hour starvation. Hypothalami were removed 30 minutes after the injections, and pStat3^Tyr705 and total Stat3 levels were examined. (C) Nine-week old lean wt and ob/ob mice were orally treated with PBA (1 g/kg/day) for 10 days. Following the pretreatment period, leptin-deficient ob/ob mice were either administered with VEH or with different doses of leptin through the intraperitoneal route. […]
(a) Hypothalamic PERK phosphorylation (Thr980) after 21 days of vehicle or TUDCA (150 mg/kg/day) treatment. […] Error bars are ±S.E.M., P values are determined by Student's t-test. […]
If the postulate that reduction of ER stress in the hypothalamus increases leptin sensitivity is true, chemical chaperones other than PBA should also create the same effect and sensitize the obese mice to leptin. […] For this purpose we treated ob/ob mice either with vehicle or TUDCA (150 mg/kg/day) for a period of 21 days and analyzed the hypothalamic PERK phosphorylation. […]

[2] = test system: C57BL/6 wt-lean mice; test: TUDCA and leptin co-treatment in C57BL/6 wt-lean mice; type: in vivo; details: leptin 1 mg/kg/day, TUDCA 150 mg/kg/day, 30 days
Protocol: Following an initial acclimation period, eight week-old wt lean mice were treated with vehicle (VEH), Leptin (1 mg/kg/day) (L), TUDCA (150 mg/kg/day) (TUD) or leptin and TUDCA together for a period of 30 days. (a) Bodyweight (g), (b) % decrease in bodyweight, (c) Daily food intake (g) of the wt mice treated with VEH, LEP, TUD and TUD+LEP during the experimental period (n=4 in each group). Error bars are ±S.E.M., P values are determined by Student's t-test (*p<0.05, **p<0.01, ***p<0.001).
If the postulate that reduction of ER stress in the hypothalamus increases leptin sensitivity is true, chemical chaperones other than PBA should also create the same effect and sensitize the obese mice to leptin. TUDCA is a hydrophilic bile acid, which has a completely different structure than PBA, but has chemical chaperone activity in common^25. First, we investigated whether TUDCA can reduce ER stress in the hypothalamus of the ob/ob mice. For this purpose we treated ob/ob mice either with vehicle or TUDCA (150 mg/kg/day) for a period of 21 days and analyzed the hypothalamic PERK phosphorylation. […] To address this question we first pretreated the ob/ob mice with TUDCA (150 mg/kg/day) for 5 days and subsequently initiated leptin (1 mg/kg) treatment. […] Body weight of the ob/ob mice decreased further with leptin and TUDCA co-treatment and reached to 34.39±1.30 g from 50.55±1.14 g (Lep vs. TUD+Lep, p<0.001). […] Furthermore, to investigate the metabolic homeostasis in more detail, we placed the mice in metabolic cages. […] Heat generation was the same between the groups (FIG. 5j). Next, we analyzed the whole body fat composition by DEXA scan. […] Finally, analysis of lean mass has shown that none of the treatments lead to a significant change in this parameter ([…]). We additionally investigated the effect of TUDCA and leptin co-treatment on C57BL/6 wt-lean mice.

Compound	PERK (Thr980) phosphorylation in hypothalamus ([1]; PBA 1 g/kg/day orally, 26 days)	hypothalamic PERK phosphorylation (PERK activity) ([1]; TUDCA 150 mg/kg/day, 21 days)	body weight [2]	food intake [2]
O=C(O)CCCc1ccccc1 [PBA, 4-phenyl butyric acid]	significantly reduced	–	–	–
C[C@H](CCC(=O)NCCS(=O)(=O)O)[C@H]1CC[C@H]2[C@@H]3[C@@H](O)C[C@@H]4C[C@H](O)CC[C@]4(C)[C@H]3CC[C@]12C [TUDCA, tauroursodeoxycholic acid]	–	down regulated	did not observe any significant changes	did not observe any significant changes
leptin: adipocyte-derived hormone that suppresses appetite	–	–	did not observe any significant changes	did not observe any significant changes

Reference: patent US9283277B2, “Methods and compositions for the treatment of obesity” (Children's Medical Center Corporation, priority 2008, dated 2016)
